Experimental data published in patent US8987286B2, “Substituted pyrimido[1,2-b]indazoles and their use as modulators of the Pi3K/Akt pathway” (Bayer Intellectual Property GmbH, priority 2010, dated 2015).
Structures can show the parent of a compound that is named as a salt.

Target: Akt1 (Homo sapiens (Human), UniProt P31749)
Assay: Akt1 kinase assay (Akt1 TR-FRET assay)
Format: biochemical
Conditions: His-tagged human recombinant full-length Akt1, 10 μM ATP, 1 μM peptide substrate
Excerpt: Biological Assay 1.0: Akt1 Kinase Assay
Akt1 inhibitory activity of compounds of the present invention was quantified employing the Akt1 TR-FRET assay as described in the following paragraphs.
His-tagged human recombinant kinase full-length Akt1 expressed in insect cells was purchased form Invitrogen (part number PV 3599). As substrate for the kinase reaction the biotinylated peptide biotin-Ahx-KKLNRTLSFAEPG (C-terminus in amide form) was used which can be purchased e.g. from the company Biosynthan GmbH (Berlin-Buch, Germany).
For the assay 50 nl of a 100 fold concentrated solution of the test compound in DMSO was pipetted into a black low volume 384 well microtiter plate (Greiner Bio-One, Frickenhausen, Germany), 2 μl of a solution of Akt1 in assay buffer [50 mM TRIS/HCl pH 7.5, 5 mM MgCl2, 1 mM dithiothreitol, 0.02% (v/v) Triton X-100 (Sigma)] were added and the mixture was incubated for 15 min at 22° C. to allow pre-binding of the test compounds to the enzyme before the start of the kinase reaction. Then the kinase reaction was started by the addition of 3 μl of a solution of adenosine-tri-phosphate (ATP, 16.7 μM=>final conc. in the 5 μl assay volume is 10 μM) and substrate (1.67 μM=>final conc. in the 5 μl assay volume is 1 μM) in assay buffer and the resulting mixture was incubated for a reaction time of 60 min at 22° C. The concentration of Akt1 in the assay was adjusted depending of the activity of the enzyme lot and was chosen appropriate to have the assay in the linear range, typical enzyme concentrations were in the range of about 0.05 ng/μl (final conc. in the 5 μl assay volume).
The reaction was stopped by the addition of 5 μl of a solution of HTRF detection reagents (200 nM streptavidine-XL665 [Cisbio] and 1.5 nM anti-phosho-Serine antibody [Millipore, cat. #35-001] and 0.75 nM LANCE Eu-W 1024 labeled anti-mouse IgG antibody [Perkin Elmer]) in an aqueous EDTA-solution (100 mM EDTA, 0.1% (w/v) bovine serum albumin in 50 mM HEPES/NaOH pH 7.5).
The resulting mixture was incubated 1 h at 22° C. to allow the binding of the biotinylated phosphorylated peptide to the streptavidine-XL665 and the antibodies. Subsequently the amount of phosphorylated substrate was evaluated by measurement of the resonance energy transfer from the anti-mouse-IgG-Eu-Chelate to the streptavidine-XL665. Therefore, the fluorescence emissions at 620 nm and 665 nm after excitation at 350 nm was measured in a HTRF reader, e.g. a Rubystar (BMG Labtechnologies, Offenburg, Germany) or a Viewlux (Perkin-Elmer). The ratio of the emissions at 665 nm and at […] was taken as the measure for the amount of phosphorylated substrate. The data were normalised (enzyme reaction without inhibitor=0% inhibition, all other assay components but no enzyme=100% inhibition).

Akt1, sequence (P31749 whole entry): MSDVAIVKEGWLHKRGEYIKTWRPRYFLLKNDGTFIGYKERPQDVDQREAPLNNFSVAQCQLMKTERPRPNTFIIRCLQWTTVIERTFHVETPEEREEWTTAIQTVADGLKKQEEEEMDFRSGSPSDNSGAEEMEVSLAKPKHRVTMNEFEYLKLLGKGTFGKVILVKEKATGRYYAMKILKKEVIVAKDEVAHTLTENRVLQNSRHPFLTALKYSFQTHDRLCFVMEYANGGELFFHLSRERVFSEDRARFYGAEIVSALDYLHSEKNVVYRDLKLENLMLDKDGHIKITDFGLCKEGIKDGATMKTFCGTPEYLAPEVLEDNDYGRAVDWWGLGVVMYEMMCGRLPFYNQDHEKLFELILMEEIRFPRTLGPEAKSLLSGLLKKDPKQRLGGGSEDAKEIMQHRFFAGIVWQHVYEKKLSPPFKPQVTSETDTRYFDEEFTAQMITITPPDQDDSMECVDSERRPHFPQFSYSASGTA

IC50 [nM] | SMILES
15 | NC1(c2ccc(-c3nc4c5ccc(-c6ccn[nH]6)cc5nn4cc3-c3ccccc3)cc2)CCC1 [Example 15.0, 1-{4-[3-Phenyl-8-(1H-pyrazol-5-yl)pyrimido[1,2-b]indazol-2-yl]phenyl}-cyclobutylamine]
6 | Cc1cc(-c2ccc3nn4cc(-c5ccccc5)c(-c5ccc(C6(N)CCC6)cc5)nc4c3c2)[nH]n1 [Example 15.3, 1-{4-[9-(3-Methyl-1H-pyrazol-5-yl)-3-phenylpyrimido[1,2-b]indazol-2-yl]phenyl}cyclobutylamine]
130 | COC(=O)c1cccc(-c2ccc3nn4cc(-c5ccccc5)c(-c5ccc(C6(N)CCC6)cc5)nc4c3c2)c1 [Example 5.2, 3-{2-[4-(1-Aminocyclobutyl)phenyl]-3-phenylpyrimido[1,2-b]indazol-9-yl}benzoic acid methyl ester]
160 | NC1(c2ccc(-c3nc4c5cccc(-c6cn[nH]c6)c5nn4cc3-c3ccccc3)cc2)CCC1 [Example 8.5, 1-{4-[3-Phenyl-7-(1H-pyrazol-4-yl)pyrimido[1,2-b]indazol-2-yl]-phenyl}cyclobutylamine×0.5 formiate]
120 | Cc1ccc(-c2ccc3nn4cc(-c5ccccc5)c(-c5ccc(C6(N)CCC6)cc5)nc4c3c2)cc1 [Example 5.1, 1-[4-(3-Phenyl-9-p-tolylpyrimido[1,2-b]indazol-2-yl)phenyl]cyclobutylamine]
16 | NC1(c2ccc(-c3nc4c5cc(-c6cccc(CO)c6)ccc5nn4cc3-c3ccccc3)cc2)CCC1 [Example 6.3, 3-{2-[4-(1-Aminocyclobutyl)phenyl]-3-phenylpyrimido[1,2-b]indazol-9-yl}benzyl alcohol formiate]
10 | Cc1cc(-c2ccc3c(c2)nn2cc(-c4ccccc4)c(-c4ccc(C5(N)CCC5)cc4)nc32)[nH]n1 [Example 15.1, 1-{4-[8-(3-Methyl-1H-pyrazol-5-yl)-3-phenylpyrimido[1,2-b]indazol-2-yl]phenyl}cyclobutylamine]
170 | NC1(c2ccc(-c3nc4c5cccc(Br)c5nn4cc3-c3ccccc3)cc2)CCC1 [Example 8.1, 1-[4-(7-Bromo-3-phenylpyrimido[1,2-b]indazol-2-yl)phenyl]cyclobutylamine hydrochloride]
10 | NC1(c2ccc(-c3nc4c5cc(-c6ccn[nH]6)ccc5nn4cc3-c3ccccc3)cc2)CCC1 [Example 15.2, 1-{4-[3-Phenyl-9-(1H-pyrazol-5-yl)pyrimido[1,2-b]indazol-2-yl]-phenyl}cyclobutylamine]
10 | NC1(c2ccc(-c3nc4c5cc(-c6ccc(F)c(CO)c6)ccc5nn4cc3-c3ccccc3)cc2)CCC1 [Example 6.6, 5-{2-[4-(1-Aminocyclobutyl)phenyl]-3-phenylpyrimido[1,2-b]indazol-9-yl}-2-fluorobenzyl alcohol]
10 | COC(=O)/C=C/c1ccc2nn3cc(-c4ccccc4)c(-c4ccc(C5(N)CCC5)cc4)nc3c2c1 [Example 15.4, (E)-3-{2-[4-(1-Aminocyclobutyl)phenyl]-3-phenylpyrimido[1,2-b]indazol-9-yl}acrylic acid methyl ester]
31 | NC1(c2ccc(-c3nc4c5cc(-c6ccc(S(N)(=O)=O)cc6)ccc5nn4cc3-c3ccccc3)cc2)CCC1 [Example 6.5, 4-{2-[4-(1-Aminocyclobutyl)phenyl]-3-phenylpyrimido[1,2-b]indazol-9-yl}benzenesulfonamide formiate]
720 | NC1(c2ccc(-c3nc4c5cccc(-c6ccc(CO)cc6)c5nn4cc3-c3ccccc3)cc2)CCC1 [Example 8.3, 4-{2-[4-(1-Aminocyclobutyl)phenyl]-3-phenylpyrimido[1,2-b]indazol-7-yl}benzyl alcohol formiate]
41 | NC1(c2ccc(-c3nc4c5cc(Br)ccc5nn4cc3-c3ccccc3)cc2)CCC1 [Example 6.1, 1-[4-(9-Bromo-3-phenylpyrimido[1,2-b]indazol-2-yl)phenyl]cyclobutylamine]
97 | N#Cc1ccc(-c2ccc3nn4cc(-c5ccccc5)c(-c5ccc(C6(N)CCC6)cc5)nc4c3c2)cc1 [Example 6.2, 4-{2-[4-(1-Aminocyclobutyl)phenyl]-3-phenylpyrimido[1,2-b]indazol-9-yl}benzonitrile formiate]

Continued, compound first:

SMILES | IC50 [nM]
NC1(c2ccc(-c3nc4c5ccc(-c6ccc(F)c(O)c6)cc5nn4cc3-c3ccccc3)cc2)CCC1 [Example 4.5, 5-{2-[4-(1-Aminocyclobutyl)phenyl]-3-phenylpyrimido[1,2-b]indazol-8-yl}-2-fluorophenol formiate] | 35
COC(=O)c1ccc(-c2ccc3c(c2)nn2cc(-c4ccccc4)c(-c4ccc(C5(N)CCC5)cc4)nc32)cn1 [Example 4.13, 5-{2-[4-(1-Aminocyclobutyl)phenyl]-3-phenylpyrimido[1,2-b]indazol-8-yl}pyridine-2-carboxylic acid methyl ester] | 23
COC(=O)c1cccc2c1nn1cc(-c3ccccc3)c(-c3ccc(C4(N)CCC4)cc3)nc21 [Example 10, 2-[4-(1-Aminocyclobutyl)phenyl]-3-phenylpyrimido[1,2-b]indazole-7-carboxylic acid methyl ester formiate] | 740
NC1(c2ccc(-c3nc4c5cc(F)ccc5nn4c(NC4CC4)c3-c3ccccc3)cc2)CCC1 [Example 2, 2-[4-(1-Aminocyclobutyl)phenyl]-N-cyclopropyl-9-fluoro-3-phenylpyrimido[1,2-b]indazol-4-amine] | 528
CS(=O)(=O)c1cccc(-c2ccc3c(c2)nn2cc(-c4ccccc4)c(-c4ccc(C5(N)CCC5)cc4)nc32)c1 [Example 4.7, 1-{4-[8-(3-Mesylphenyl)-3-phenylpyrimido[1,2-b]indazol-2-yl]phenyl}cyclobutylamine formiate] | 25
NC(=O)c1cccc(-c2ccc3c(c2)nn2cc(-c4ccccc4)c(-c4ccc(C5(N)CCC5)cc4)nc32)c1 [Example 4.9, 3-{2-[4-(1-Aminocyclobutyl)phenyl]-3-phenylpyrimido[1,2-b]indazol-8-yl}benzamide] | 16
NC(=O)/C=C/c1cccc2c1nn1cc(-c3ccccc3)c(-c3ccc(C4(N)CCC4)cc3)nc21 [Example 14, (E)-3-{2-[4-(1-Aminocyclobutyl)phenyl]-3-phenylpyrimido[1,2-b]indazol-7-yl}-acrylamide] | 580
CS(=O)(=O)c1ccc(-c2ccc3c(c2)nn2cc(-c4ccccc4)c(-c4ccc(C5(N)CCC5)cc4)nc32)cc1 [Example 4.1, 1-{4-[8-(4-Mesylphenyl)-3-phenylpyrimido[1,2-b]indazol-2-yl]-phenyl}cyclobutylamine] | 59
N#Cc1cccc(-c2ccc3c(c2)nn2cc(-c4ccccc4)c(-c4ccc(C5(N)CCC5)cc4)nc32)c1 [Example 4, 3-{2-[4-(1-Aminocyclobutyl)phenyl]-3-phenylpyrimido[1,2-b]indazol-8-yl}-benzonitrile] | 140
NC1(c2ccc(-c3nc4c5ccc(-c6cn[nH]c6)cc5nn4cc3-c3ccccc3)cc2)CCC1 [Example 4.11, 1-{4-[3-Phenyl-8-(1H-pyrazol-4-yl)pyrimido[1,2-b]indazol-2-yl]-phenyl}cyclobutylamine] | 17
NC1(c2ccc(-c3nc4c5ccc(-c6ccc(O)nc6)cc5nn4cc3-c3ccccc3)cc2)CCC1 [Example 4.12, 5-{2-[4-(1-Aminocyclobutyl)phenyl]3-phenylpyrimido[1,2-b]indazol-8-yl}pyridin-2-ol] | 14
